Results reported in patent US8658646B2, “Pyrrolopyrazine kinase inhibitors” (Hoffmann-LaRoche Inc., priority 2011, dated 2014).
Values joined by “and” are separate entries in the source; they are usually repeats but may differ in a detail not shown here. Equal values may be shown once.

Target: T1, JAK3: Recombinant human kinase domain (Homo sapiens, UniProt P52333)
T1 construct: JAK3: Recombinant human kinase domain from Millipore (Cat #14-629) or prepared; purchased Millipore 14-629
Assay: Determination of IC50 of Janus Kinase (JAK) inhibition, radioactive end-point 33P-ATP assay, JAK3
Format: biochemical
Conditions: ATP 1.5 uM, peptide 50 uM, 20 minutes, read-out: JAK3-INHIB-DR/v1~NO ADDITIVE~Enzyme_Conc = 100

T1 sequence (P52333 822-1111 limits assumed): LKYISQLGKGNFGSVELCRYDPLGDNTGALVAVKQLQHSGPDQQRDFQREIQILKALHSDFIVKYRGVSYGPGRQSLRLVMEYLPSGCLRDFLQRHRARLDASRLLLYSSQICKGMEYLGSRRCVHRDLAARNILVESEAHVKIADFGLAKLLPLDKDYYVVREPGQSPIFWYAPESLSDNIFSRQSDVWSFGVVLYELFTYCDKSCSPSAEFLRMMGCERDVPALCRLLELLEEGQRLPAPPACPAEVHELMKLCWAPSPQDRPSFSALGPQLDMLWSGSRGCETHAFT

SMILES | IC50
CC[C@H](COC)NC(=O)c1c[nH]c2ncc(-c3nn(C)c4cc(Cl)ccc34)nc12 [Example I-162, 2-(6-Chloro-1-methyl-1H-indazol-3-yl)-5H-pyrrolo[2,3-b]pyrazine-7-carboxylic acid ((R)-1-methoxymethyl-propyl)-amide] | 11.3 nM
C[C@@H](CO)NC(=O)c1c[nH]c2ncc(-c3nn(C)c4cc(Cl)ccc34)nc12 [Example I-164, 2-(6-Chloro-1-methyl-1H-indazol-3-yl)-5H-pyrrolo[2,3-b]pyrazine-7-carboxylic acid ((S)-2-hydroxy-1-methyl-ethyl)-amide] | 17 nM
COC[C@H](C)NC(=O)c1c[nH]c2ncc(-c3nn(C)c4cc(Cl)cc(F)c34)nc12 [Example I-170, 2-(6-Chloro-4-fluoro-1-methyl-1H-indazol-3-yl)-5H-pyrrolo[2,3-b]pyrazine-7-carboxylic acid ((S)-2-methoxy-1-methyl-ethyl)-amide] | 7.12 nM
CCOC[C@H](C)NC(=O)c1c[nH]c2ncc(-c3nn(C)c4cc(Cl)ccc34)nc12 [Example I-171, 2-(6-Chloro-1-methyl-1H-indazol-3-yl)-5H-pyrrolo[2,3-b]pyrazine-7-carboxylic acid ((S)-2-ethoxy-1-methyl-ethyl)-amide] | 5.78 nM
CC[C@@H](COC)NC(=O)c1c[nH]c2ncc(-c3nn(C)c4cc(Cl)ccc34)nc12 [Example I-173, 2-(6-Chloro-1-methyl-1H-indazol-3-yl)-5H-pyrrolo[2,3-b]pyrazine-7-carboxylic acid ((S)-1-methoxymethyl-propyl)-amide] | 3.56 nM
COC[C@@H](NC(=O)c1c[nH]c2ncc(-c3nn(C)c4cc(Cl)ccc34)nc12)C(=O)N1CC(F)C1 [Example I-174, 2-(6-Chloro-1-methyl-1H-indazol-3-yl)-5H-pyrrolo[2,3-b]pyrazine-7-carboxylic acid [(R)-2-(3-fluoro-azetidin-1-yl)-1-methoxymethyl-2-oxo-ethyl]-amide] | 1.09 nM
COC[C@@H](NC(=O)c1c[nH]c2ncc(-c3nn(C)c4cc(Cl)ccc34)nc12)C(=O)N1CC(C#N)C1 [Example I-175, 2-(6-Chloro-1-methyl-1H-indazol-3-yl)-5H-pyrrolo[2,3-b]pyrazine-7-carboxylic acid [(R)-2-(3-cyano-azetidin-1-yl)-1-methoxymethyl-2-oxo-ethyl]-amide] | 0.54 nM
C[C@@H](O)[C@@H](CO)NC(=O)c1c[nH]c2ncc(-c3nn(C)c4cc(F)ccc34)nc12 [Example I-176, 2-(6-Fluoro-1-methyl-1H-indazol-3-yl)-5H-pyrrolo[2,3-b]pyrazine-7-carboxylic acid ((1R,2R)-2-hydroxy-1-hydroxymethyl-propyl)-amide] | 165 nM
CC[C@@H](C)NC(=O)c1c[nH]c2ncc(-c3nn(C)c4cc(F)ccc34)nc12 [Example I-180, 2-(6-Fluoro-1-methyl-1H-indazol-3-yl)-5H-pyrrolo[2,3-b]pyrazine-7-carboxylic acid ((R)-sec-butyl)-amide] | 3.89 nM
[2H]C([2H])([2H])OC[C@H](C)NC(=O)c1c[nH]c2ncc(-c3nn(C)c4cc(F)ccc34)nc12 [Example I-182, 2-(6-Fluoro-1-methyl-1H-indazol-3-yl)-5H-pyrrolo[2,3-b]pyrazine-7-carboxylic acid ((S)-1-methyl-2-trideuteromethoxy-ethyl)-amide] | 1.07 nM
CC(CC(F)(F)F)NC(=O)c1c[nH]c2ncc(-c3nn(C)c4cc(F)ccc34)nc12 (stereo not shown) [Example I-185, 2-(6-Fluoro-1-methyl-1H-indazol-3-yl)-5H-pyrrolo[2,3-b]pyrazine-7-carboxylic acid (3,3,3-trifluoro-1-methyl-propyl)-amide] | 5.03 nM
CC(C)CC(C)NC(=O)c1c[nH]c2ncc(-c3nn(C)c4cc(F)ccc34)nc12 (stereo not shown) [Example I-187, 2-(6-Fluoro-1-methyl-1H-indazol-3-yl)-5H-pyrrolo[2,3-b]pyrazine-7-carboxylic acid (1,3-dimethyl-butyl)-amide] | 20.4 nM
C[C@H](CO)NC(=O)c1c[nH]c2ncc(-c3nn(C)c4cc(Cl)ccc34)nc12 [Example I-200, 2-(6-Chloro-1-methyl-1H-indazol-3-yl)-5H-pyrrolo[2,3-b]pyrazine-7-carboxylic acid ((R)-2-hydroxy-1-methyl-ethyl)-amide] | 54.5 nM

Results, then the compound that gave them:

IC50 | SMILES
136 nM | CC(COc1ccccc1)NC(=O)c1c[nH]c2ncc(-c3nn(C)c4cc(F)ccc34)nc12 (stereo not shown) [Example I-202, 2-(6-Fluoro-1-methyl-1H-indazol-3-yl)-5H-pyrrolo[2,3-b]pyrazine-7-carboxylic acid (1-methyl-2-phenoxy-ethyl)-amide]
18.4 nM | C[C@H](CCC#N)NC(=O)c1c[nH]c2ncc(-c3nn(C)c4cc(Cl)ccc34)nc12 [Example I-205, 2-(6-Chloro-1-methyl-1H-indazol-3-yl)-5H-pyrrolo[2,3-b]pyrazine-7-carboxylic acid ((R)-3-cyano-1-methyl-propyl)-amide]
> 1000 nM and 830 nM | Cn1nc(-c2cnc3[nH]cc(C(=O)NC4(c5cccc(Br)c5)CCC4)c3n2)c2ccc(F)cc21 [Example I-209, 2-(6-Fluoro-1-methyl-1H-indazol-3-yl)-5H-pyrrolo[2,3-b]pyrazine-7-carboxylic acid [1-(3-bromo-phenyl)-cyclobutyl]-amide]
102 nM | Cn1nc(-c2cnc3[nH]cc(C(=O)NC4(c5ccc(Br)cc5)CCC4)c3n2)c2ccc(F)cc21 [Example I-210, 2-(6-Fluoro-1-methyl-1H-indazol-3-yl)-5H-pyrrolo[2,3-b]pyrazine-7-carboxylic acid [1-(4-bromo-phenyl)-cyclobutyl]-amide]
> 1000 nM | Cn1nc(-c2cnc3[nH]cc(C(=O)N[C@H](c4ccc(Br)cc4)C(F)(F)F)c3n2)c2ccc(F)cc21 [Example I-211, 2-(6-Fluoro-1-methyl-1H-indazol-3-yl)-5H-pyrrolo[2,3-b]pyrazine-7-carboxylic acid [(R)-1-(4-bromo-phenyl)-2,2,2-trifluoro-ethyl)-amide]
2.12 nM | COC[C@H](C)NC(=O)c1c[nH]c2ncc(-c3nn(C)c4cc(F)c(F)cc34)nc12 [Example I-212, 2-(5,6-Difluoro-1-methyl-1H-indazol-3-yl)-5H-pyrrolo[2,3-b]pyrazine-7-carboxylic acid ((S)-2-methoxy-1-methyl-ethyl)-amide]
76.1 nM | Cn1nc(-c2cnc3[nH]cc(C(=O)N[C@@H]4CCN(Cc5ccccc5)C4)c3n2)c2ccc(F)cc21 [Example I-213, 2-(6-Fluoro-1-methyl-1H-indazol-3-yl)-5H-pyrrolo[2,3-b]pyrazine-7-carboxylic acid ((R)-1-benzyl-pyrrolidin-3-yl)-amide]
27.3 nM | Cn1nc(-c2cnc3[nH]cc(C(=O)N[C@@H]4CCN(CC#N)C4)c3n2)c2ccc(F)cc21 [Example I-214, 2-(6-Fluoro-1-methyl-1H-indazol-3-yl)-5H-pyrrolo[2,3-b]pyrazine-7-carboxylic acid ((R)-1-cyanomethyl-pyrrolidin-3-yl)-amide]
27.3 nM | C[C@@H](NC(=O)c1c[nH]c2ncc(-c3nn(C)c4cc(F)ccc34)nc12)c1cccc(Br)c1 [Example I-215, 2-(6-Fluoro-1-methyl-1H-indazol-3-yl)-5H-pyrrolo[2,3-b]pyrazine-7-carboxylic acid [(R)-1-(3-bromo-phenyl)-ethyl]-amide]
